Test [1] deals with T1, aurora-2 kinase (Homo sapiens, UniProt O14965).
T1 construct: purchased Imgenex, San Diego, Calif; host or cells: sf9 cells
T1 sequence (O14965 1-403): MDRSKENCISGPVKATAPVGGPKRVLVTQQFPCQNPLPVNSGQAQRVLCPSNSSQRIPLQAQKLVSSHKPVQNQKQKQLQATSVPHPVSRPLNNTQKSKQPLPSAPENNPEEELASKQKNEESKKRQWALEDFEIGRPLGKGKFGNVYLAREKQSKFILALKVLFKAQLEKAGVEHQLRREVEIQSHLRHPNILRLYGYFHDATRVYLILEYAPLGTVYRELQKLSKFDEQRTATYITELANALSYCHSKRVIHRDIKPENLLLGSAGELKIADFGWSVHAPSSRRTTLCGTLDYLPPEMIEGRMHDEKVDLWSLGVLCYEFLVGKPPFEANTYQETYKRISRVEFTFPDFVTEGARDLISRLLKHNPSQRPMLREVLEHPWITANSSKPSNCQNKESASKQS
Briefly: Aurora-2 kinase inhibition assay (Kinase-Glo). It is filed as biochemical. To be noted: for degree of inhibition of aurora-2 kinase activity (rank among tested compounds): 20 μM, FIG. 10; for IC50: aurora-2 kinase, FIG. 11. As for the experimental part:
In this assay kinase activity is determined by quantifying the amount of ATP remaining in solution following the kinase reaction by measuring the light units (LU) produced by luciferase using a luminometer. Percent inhibition was determined for individual compounds by comparing luminometer readings of drug-treated reactions to controls containing no drug (DMSO control) and no Aurora-2 enzyme (ATP control) in the following equation: […]
In a 50 μl reaction, recombinant aurora-2 kinase produced in sf9 cells (Imgenex, San Diego, Calif.) was incubated at 30° C. for two hours with 62.5 μM Kemptide (Calbiochem, San Diego, Calif.), 3 μM ATP (Invitrogen, Carlsbad, Calif.) and kinase reaction buffer (40 mM Tris-HCl, 10 mM MgCl2 and 0.1 μg/μl bovine serum albumin (BSA)). This reaction was carried out in the presence of drug substances, which had been previously diluted to desired concentrations in DMSO. After incubation, 50 μl of Kinase-Glo® (Promega, Inc., Madison, Wis.) solution was added to each reaction mixture and allowed to equilibrate for 10 minutes at room temperature. Kinase-Glo solution contains luciferase enzyme and luciferin, which react with ATP to produce light. Kinase activity is determined by quantifying the amount of ATP remaining in solution following the kinase reaction by measuring the light units (LU) produced by luciferase using a luminometer (PerkinElmer, Boston, Mass.).
For orientation: Kinase-Glo reads ATP consumption through a luciferase reaction.

In test [2] the test system is Akt phosphorylation in NIH 3T3 cells. Put plainly: Immunoblot for phospho-Akt (S473). Type of test: cell-based. As for the experimental part: (§1) In order to evaluate these effects at the cellular level, immunoblot analysis was performed on lysates from cells treated with MP470, with or without the addition of the EGFR inhibitor Tarceva®. Lysates were assayed for general tyrosine kinase activity, as well as the specific phosphorylation of c-Met and Akt. Briefly, NIH 3T3 cells were pretreated with drugs as indicated for 4 hours, then treated with pervanadate for a further 30 minutes. Immunoblot detection was carried out with antibodies for phosphotyrosine, phospho-Met and phospho-Akt (S473), as well as total c-Met and Akt. Beta-actin was used as a loading control.

The subject of test [3] is Rad51 in SF-767 cancer cells. Put plainly: Western blotting for Rad51 after IR. It is filed as cell-based. To be noted: SF-767 cells pretreated with MP470.
Test [4] relates to mutant forms of PDGFR. Briefly: Activity against mutant PDGFR (stated). It is filed as biochemical.
Test [5] has as its system general tyrosine phosphorylation in NIH 3T3 cells. Put plainly: Immunoblot for phosphotyrosine. It is filed as cell-based. As for the experimental part:
as §1, with “MP-470 (Compound III-1-3) has inhibitory effects on a number of receptor tyrosine kinases. In” for “In”

Test [6] deals with PDGFRa (Homo sapiens, UniProt P16234). Briefly: Autophosphorylation assay with γ-32P-ATP. Type of test: biochemical. To be noted: FIG. 28B. The protocol:
(§2) Enzymes were incubated with the appropriate concentration of inhibitor and radiolabeled γ-^32P-ATP. After 30 minutes, the reaction mixtures were electrophoresed on an acrylamide gel and autophosphorylation, quantitated by the amount of radioactivity incorporated into the enzyme, was assayed.

Test [7] has as its target c-Kit (Homo sapiens, UniProt P10721). Put plainly: Autophosphorylation assay with γ-32P-ATP. It is filed as biochemical. To be noted: FIG. 28A. The protocol:
as §2

Test [8] addresses cKit(V560G)(h) (Homo sapiens, UniProt P10721, V560G). Put plainly: Kinase profile screen. It is filed as biochemical. To be noted: 1 uM. As for the experimental part:
(§3) In order to determine the specificity and potential alternative targets for MP470, kinase profile screen were performed utilizing the KinaseProfiler™ Screen (Upstate Corp) and Select Screen™ kinase profiling (Invitrogen). Between the two screens, 53 different kinases were tested, representing a broad proportion of the human kinome. MP470 was screened at a concentration of 1 μM against both wildtype and mutant kinases.

Test [9] addresses cKit(D816V)(h) (Homo sapiens, UniProt P10721, D816V). Put plainly: Kinase profile screen. To be noted: 1 uM. Type of test: biochemical. The protocol: as §3
In test [10] the target is Flt3(D835Y)(h) (Homo sapiens, UniProt P36888, D835Y). Put plainly: Kinase profile screen. It is filed as biochemical. To be noted: 1 uM. As for the experimental part: as §3
Test [11] has as its target PDGFRα(D842V)(h) (Homo sapiens, UniProt P16234, D842V). Briefly: Kinase profile screen. Type of test: biochemical. To be noted: 1 uM. As for the experimental part: as §3
The target in test [12] is cKit(V654A)(h) (Homo sapiens, UniProt P10721, V654A). Briefly: Kinase profile screen. It is filed as biochemical. To be noted: 1 uM. The protocol: as §3
Test [13] has as its target PDGFRα(V561D)(h) (Homo sapiens, UniProt P16234, V561D). Put plainly: Kinase profile screen. It is filed as biochemical. To be noted: 1 uM. As for the experimental part: as §3
Test [14] deals with c-met (Homo sapiens, UniProt P08581). Briefly: Activity against c-met (stated). It is filed as biochemical.
For test [15], the target named is T1, aurora-2 kinase. Briefly: Protein kinase inhibitory activity (Example 33, Kinase-Glo). It is filed as biochemical. To be noted: FIG. 27.
Experimental: Percent activity was determined for individual compounds by comparing luminometer readings of drug-treated reactions to controls containing no drug (RLUNo Inhib) and no Aurora-2 enzyme (RLUNo Kinase) in the following equation:
After incubation, 50 μl of Kinase-Glo® (Promega, Inc., Madison, Wis.) solution was added to each reaction mixture and allowed to equilibrate for 10 minutes at room temperature. Kinase-Glo solution contains luciferase enzyme and luciferin, which react with ATP to produce light. Kinase activity is determined by quantifying the amount of ATP remaining in solution following the kinase reaction by measuring the relative light units (RLU) produced by luciferase using a luminometer (Thermo Electron Corporation, Vantaa, Finland).

Read-outs that look alike come from different tables or passages of the source.

Sequence of PDGFRα(D842V)(h) (P16234 24-1089 D842V): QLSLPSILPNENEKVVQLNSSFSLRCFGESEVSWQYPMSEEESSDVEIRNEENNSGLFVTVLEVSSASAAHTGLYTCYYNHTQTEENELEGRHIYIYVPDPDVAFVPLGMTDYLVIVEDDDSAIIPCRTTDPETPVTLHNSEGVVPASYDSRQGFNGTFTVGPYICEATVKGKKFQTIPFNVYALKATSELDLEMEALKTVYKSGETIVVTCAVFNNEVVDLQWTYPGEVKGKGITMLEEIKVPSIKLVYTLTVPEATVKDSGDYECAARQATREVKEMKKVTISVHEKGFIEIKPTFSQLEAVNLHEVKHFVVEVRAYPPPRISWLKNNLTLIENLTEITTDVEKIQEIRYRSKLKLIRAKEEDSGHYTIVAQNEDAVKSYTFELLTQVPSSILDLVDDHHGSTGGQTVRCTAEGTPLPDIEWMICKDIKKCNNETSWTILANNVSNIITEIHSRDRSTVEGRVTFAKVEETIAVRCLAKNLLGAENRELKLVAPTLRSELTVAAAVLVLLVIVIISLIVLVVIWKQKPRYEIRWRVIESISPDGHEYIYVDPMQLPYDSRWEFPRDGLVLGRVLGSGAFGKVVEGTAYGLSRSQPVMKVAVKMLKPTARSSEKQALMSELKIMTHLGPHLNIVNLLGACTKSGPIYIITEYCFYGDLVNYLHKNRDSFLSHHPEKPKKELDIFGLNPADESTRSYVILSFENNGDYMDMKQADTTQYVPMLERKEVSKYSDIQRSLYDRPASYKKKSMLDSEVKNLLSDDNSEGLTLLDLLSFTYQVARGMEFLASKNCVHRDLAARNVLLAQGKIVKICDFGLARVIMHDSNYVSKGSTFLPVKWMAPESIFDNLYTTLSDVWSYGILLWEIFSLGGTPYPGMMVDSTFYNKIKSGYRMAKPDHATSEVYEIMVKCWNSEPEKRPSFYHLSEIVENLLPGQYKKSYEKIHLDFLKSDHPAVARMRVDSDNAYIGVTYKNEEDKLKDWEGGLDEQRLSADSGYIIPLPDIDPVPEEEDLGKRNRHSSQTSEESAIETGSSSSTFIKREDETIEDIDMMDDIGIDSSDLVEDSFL
Sequence of PDGFRα(V561D)(h) (P16234 24-1089 V561D): as the sequence (P16234 24-1089 D842V) above, with V538D, V819D counted along it
Sequence of c-Kit (P10721 26-976): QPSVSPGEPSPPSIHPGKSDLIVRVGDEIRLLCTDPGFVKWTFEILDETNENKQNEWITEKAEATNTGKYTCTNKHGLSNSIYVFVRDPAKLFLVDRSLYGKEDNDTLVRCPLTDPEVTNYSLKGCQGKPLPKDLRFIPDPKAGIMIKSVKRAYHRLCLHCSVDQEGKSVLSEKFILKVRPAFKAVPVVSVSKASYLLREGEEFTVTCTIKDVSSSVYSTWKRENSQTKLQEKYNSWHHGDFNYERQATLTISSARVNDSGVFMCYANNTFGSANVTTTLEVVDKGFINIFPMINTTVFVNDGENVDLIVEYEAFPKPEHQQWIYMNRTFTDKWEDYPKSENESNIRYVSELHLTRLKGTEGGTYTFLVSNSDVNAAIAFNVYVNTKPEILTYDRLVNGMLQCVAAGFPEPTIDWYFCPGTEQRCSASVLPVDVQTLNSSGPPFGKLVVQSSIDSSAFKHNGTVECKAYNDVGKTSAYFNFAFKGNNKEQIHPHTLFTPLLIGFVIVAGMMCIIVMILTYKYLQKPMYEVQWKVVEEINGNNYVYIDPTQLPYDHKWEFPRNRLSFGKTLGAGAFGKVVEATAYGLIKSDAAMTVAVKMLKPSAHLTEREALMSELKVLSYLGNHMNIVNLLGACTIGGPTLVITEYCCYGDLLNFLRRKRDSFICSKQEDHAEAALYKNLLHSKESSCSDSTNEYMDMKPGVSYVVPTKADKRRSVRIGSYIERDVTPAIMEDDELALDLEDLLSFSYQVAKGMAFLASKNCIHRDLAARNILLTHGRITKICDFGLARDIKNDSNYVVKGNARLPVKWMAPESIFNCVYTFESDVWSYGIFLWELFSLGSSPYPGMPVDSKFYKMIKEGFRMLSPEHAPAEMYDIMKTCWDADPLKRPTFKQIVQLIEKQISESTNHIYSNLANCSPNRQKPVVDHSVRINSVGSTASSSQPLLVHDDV
Sequence of cKit(V654A)(h) (P10721 26-976 V654A): as the sequence (P10721 26-976) above, with V629A counted along it
Sequence of cKit(D816V)(h) (P10721 26-976 D816V): as the sequence (P10721 26-976) above, with D791V counted along it
Sequence of c-met (P08581 25-1390): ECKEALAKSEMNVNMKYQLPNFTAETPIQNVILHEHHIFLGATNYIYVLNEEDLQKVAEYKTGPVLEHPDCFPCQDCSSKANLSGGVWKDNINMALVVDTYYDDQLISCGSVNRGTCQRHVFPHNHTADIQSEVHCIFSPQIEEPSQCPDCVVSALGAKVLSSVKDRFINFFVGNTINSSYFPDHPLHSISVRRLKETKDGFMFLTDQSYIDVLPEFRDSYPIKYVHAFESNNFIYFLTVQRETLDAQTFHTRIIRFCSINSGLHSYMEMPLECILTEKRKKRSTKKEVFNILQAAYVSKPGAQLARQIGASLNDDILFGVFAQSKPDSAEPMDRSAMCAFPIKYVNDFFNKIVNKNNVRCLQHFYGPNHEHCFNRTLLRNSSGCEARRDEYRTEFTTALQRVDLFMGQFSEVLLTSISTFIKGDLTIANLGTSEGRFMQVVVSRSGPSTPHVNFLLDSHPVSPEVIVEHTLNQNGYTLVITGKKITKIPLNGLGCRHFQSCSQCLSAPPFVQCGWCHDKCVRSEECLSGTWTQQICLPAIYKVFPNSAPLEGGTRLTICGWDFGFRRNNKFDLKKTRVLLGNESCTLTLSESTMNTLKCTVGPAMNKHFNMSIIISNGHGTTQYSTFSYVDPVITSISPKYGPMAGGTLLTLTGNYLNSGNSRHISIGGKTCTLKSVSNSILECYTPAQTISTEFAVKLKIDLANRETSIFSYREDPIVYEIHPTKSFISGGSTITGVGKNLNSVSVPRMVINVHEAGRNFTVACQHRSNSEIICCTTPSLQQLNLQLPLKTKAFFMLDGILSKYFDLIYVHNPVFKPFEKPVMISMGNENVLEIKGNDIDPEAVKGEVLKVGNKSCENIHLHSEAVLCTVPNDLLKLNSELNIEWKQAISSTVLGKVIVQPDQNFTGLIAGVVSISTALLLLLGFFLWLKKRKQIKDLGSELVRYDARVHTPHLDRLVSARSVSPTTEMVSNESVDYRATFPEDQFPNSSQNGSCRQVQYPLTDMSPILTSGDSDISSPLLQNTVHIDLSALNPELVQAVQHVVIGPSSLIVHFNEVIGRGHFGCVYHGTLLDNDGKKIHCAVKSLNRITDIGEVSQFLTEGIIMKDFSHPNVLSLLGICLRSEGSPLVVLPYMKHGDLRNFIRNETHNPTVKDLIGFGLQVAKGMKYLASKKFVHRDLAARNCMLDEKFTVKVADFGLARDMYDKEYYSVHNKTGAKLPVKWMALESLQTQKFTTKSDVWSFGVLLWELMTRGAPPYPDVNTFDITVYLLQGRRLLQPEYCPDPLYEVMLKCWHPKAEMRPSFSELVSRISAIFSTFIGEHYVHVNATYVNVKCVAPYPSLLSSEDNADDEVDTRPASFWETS
Sequence of cKit(V560G)(h) (P10721 26-976 V560G): as the sequence (P10721 26-976) above, with V535G counted along it
Sequence of PDGFRa (P16234 24-1089): as the sequence (P16234 24-1089 D842V) above, with V819D counted along it

On to `COc1cc2ncnc(N3CCN(C(=S)Nc4ccc(S(=O)(=O)Nc5ncccn5)cc4)CC3)c2cc1OC` [HPK16, 4-(6,7-Dimethoxy-quinazolin-4-yl)-piperazine-1-carbothioic acid [4-(pyrimidin-2-ylsulfamoly)-phenyl]-amide], for which, in [1], the “aurora-2 kinase inhibitory activity (in words)” value is given as “particularly effective inhibitors”, the “degree of inhibition of aurora-2 kinase activity (rank among tested compounds)” value is “second highest inhibition” and the concentration for half-maximal inhibition (IC50) (usually the concentration that gives 50% inhibition) is 4.7 µM.

`S=C(NCc1ccc2c(c1)OCO2)N1CCN(c2ncnc3c2oc2ccccc23)CC1` [HPK56, 4-Benzo[4,5]furo[3,2-d]pyrimidin-4-yl-piperazine-1-carbothioic acid (benzo[1,3]dioxol-5-ylmethyl)-amide]: the “phosphorylation of Akt” value is recorded as “reduced” in test [2] (NIH 3T3, 4 hours, agent alone) and “reduced” in test [2] (NIH 3T3, MP-470 in combination with Tarceva®). In addition, the “Rad51 protein levels after exposure to IR” value in test [3] is “remained low and near control level”. Moreover, the “activity against mutant forms of PDGFR (in words)” value in test [4] is “low nanomolar”. Besides, the general tyrosine phosphorylation result in test [5] was “reduced”. Further, the “inhibition of PDGFRa autophosphorylation (in words)” value in test [6] is recorded as “dose-dependent”. Besides, the “inhibition of c-Kit autophosphorylation (in words)” value in [7] is recorded as “dose-dependent”. For the same compound, the “activity against mutant kinase” value in [8], in test [9], in test [10], in [11], in test [12] and in test [13] was “activity” in each case. In test [14], the “activity against c-met (in words)” value is “low micromolar”.

Regarding `COc1cc2[nH]c3ncnc(N4CCN(C(=S)Nc5ccc(S(=O)(=O)Nc6ncccn6)cc5)CC4)c3c2cc1OC` [HPK62, 4-(6,7-Dimethoxy-9H-1,3,9-triaza-fluoren-4-yl)-piperazine-1-carbothioic acid [4-(pyrimidin-2-ylsulfamoyl)-phenyl]-amide], the “kinase inhibitory activity (in words)” value in test [15] is “highest activity”. Moreover, in test [1], the “aurora-2 kinase inhibitory activity (in words)” value was “particularly effective inhibitors”, the “degree of inhibition of aurora-2 kinase activity (rank among tested compounds)” value is “highest inhibition” and inhibition was half-maximal at 0.9 µM (IC50). Further, in test [1] (listed as II-2-6), the “aurora-2 kinase inhibitory activity (in words)” value is “low nanomolar”.

The record behind these values is patent US8552018B2, “Substituted tricyclic compounds as protein kinase inhibitors” (Arizona Board of Regents on behalf of the University of …, priority 2003, dated 2013).
